What all share (assay type): in vivo, human
The test system of data set [1] is chronic severe generalized anxiety disorder with marked insomnia and depression. Nature of the data set: Case History 1: patient treated with gabapentin. To be noted: initiated at a low dose. The method, then: The patient is a retired patient. […] In their medical history, there is a cervical laminectomy (1988). They report residual pain and weakness in the right arm and right leg and chronic neck pain. They have a history of three months of depression with no treatment (1989) and a history of chronic severe generalized anxiety disorder.
In December 1994, the patient had been taking a benzodiazepine, clonazepam 2.5 mg/day, for the last five years when their anxiety and depression became much worse. Anxiety was associated with marked insomnia and significant situational stressors (financial and marital). […] Patient is now functional for the first time in many years. Improvement continues as of this day. […] Improvement persists.

The test system of data set [2] is obsessive compulsive disorder (OCD), anxiety, paranoid delusions. Nature of the data set: Case History 5: patient treated with gabapentin. An excerpt:
The patient is a single person who is still studying at University. Their medical history is unremarkable. The patient was first seen by a psychiatrist and followed for obsessive compulsive disorder (OCD) in the United Emirates; the patient tended toward isolativeness. Also, they developed a tic disorder and complained of anxiety.
In February 1994, the patient developed intense paranoid ideation and became more withdrawn. Over the previous two years, the patient had suffered from paranoid delusions and auditory hallucinations. They stopped taking their neuroleptic medication in mid-December while they were a University student. They were admitted as an inpatient in March 1994. […] The patient was discharged with clozapine and lorazepam. In June, the patient was referred for Follow-Up where an anticonvulsant drug, valproic acid was added to potentiate clozapine, but discontinued in August 1994.
In February 1995, gabapentin was added to the patient's treatment. […] Currently, the patient takes clozpine 125 mg BID, […], gabapentin 500 mg HS and procyclidine 5 mg BID.

Data set [3] relates to panic attacks and anxiety disorder. Description: Case History 3: patient treated with gabapentin. To be noted: for adverse effect: human, in vivo. On the procedure: A person is a single who is working as a freelance writer. […] They were hospitalized because of severe depression and a suicide attempt by drug overdose. The patient has taken lithium since 1973. They have also had panic attacks since 1978.
In January 1994, the patient was depressed and valproic acid was initiated with lithium and clonazepam. […] Gabapentin 300 mg BID up to 300 mg TID was initiated in their treatment.

Data set [4] concerns fast cycling manic depressive illness with anxiety associated with depression. Description: Case History 2: patient treated with gabapentin. To be noted: June to December 1992. The method, then: A person is a retired patient with a family history of bipolar affective illness. The patient has been treated for manic-depressive illness since they experienced their first depressive episode and was hospitalized several times for mania and depression.
[…]), the patient was hospitalized for an episode of acute mania. After that, they were treated with lithium, tryptophan, nicotinamide, clonazepam, Premarin®, Provera® and Overal®. The patient was re-hospitalized for a manic episode […] (1982). They have been treated with various psychotropic drugs, especially: lithium, tryptophan, and clonazepam. Lithium was discontinued in October 1983 until 1985. They were given tryptophan, lecithin and female hormones for control of a severe rapid-cycling bipolar disorder. Fluoxetine, as well as, antiepileptics (carbamazepine and valproic acid) were also added to their treatment.
Due to the patient's fast cycling manic depressive illness, their medication is regularly adjusted. Since 1991 magnesium was added to their regular medication. […] In April 1993, risperidone was initiated and in March 1994 lithium was discontinued. They are currently treated with risperidone, gabapentin 1800 mg QD (initiated in August 1994), clonazepam and ritanserin was recently added to their treatment in an attempt to improve their mood. They also take magnesium and lecithin.

`CNCCC(Oc1ccc(C(F)(F)F)cc1)c1ccccc1` (stereo not drawn) [Fluoxetine]: the “clinical response (anxiety and depression)” value in data set [1] is listed as “made the patient worse”.

Consider `NCC1(CC(=O)O)CCCCC1` [gabapentin, (1-aminomethyl)-1-cyclohexaneacetic acid], for which the adverse effect result in data set [2] (during the increase of gabapentin) is on record as “dizziness during the increase of gabapentin but this subsided”; in data set [3], “the patient complained of sedation”.

As for `OC(CCN1CCCC1)(c1ccccc1)C1CCCCC1` (stereo not drawn) [procyclidine], the akathisia result in data set [2] (procyclidine 5 mg BID) is reported as “they improved with this medication”.

As to `Cc1nc2n(c(=O)c1CCN1CCC(c3noc4cc(F)ccc34)CC1)CCCC2` [risperidone], the “psychotic symptoms (paranoid delusions, auditory hallucinations)” value in data set [2] (inpatient, March 1994) is on record as “did not improve”.

Consider `CN[C@H]1CC[C@@H](c2ccc(Cl)c(Cl)c2)c2ccccc21` [sertraline], for which the “clinical response (anxiety and depression)” value in data set [1] was “made the patient worse”.

With `CCCC(CCC)C(=O)O` [valproic acid], the figures for the adverse effect entry in data set [4] and in data set [3] were “the patient was losing hair” and “they were losing their hair”, respectively. Further, in data set [3] (initiated with lithium and clonazepam, two weeks later), the depression entry is “the patient improved”.

Values taken from US6372792B1, “Method for treating anxiety, anxiety disorders and insomnia” (priority 1996, dated 2002).
